In brackets after ≈: the same amount, converted by molar mass. Like-named read-outs stand apart in the source and are kept apart here. A value given as a limit tells only on which side of the number the result lay.

Data set [1] in a line: Cytotoxicity assay (CC50), MTS. It counts as cell-based, human. As to conditions: human, HepG2-derived hepatoblastoma cell line (HEPDES19), HEPDES19 cells. As for the experimental part:
(§1) To further characterize the compounds, the minimal inhibitory concentration (MIC80) were determined for selected compounds. MIC80 is defined as the compound concentration at which ≥80% bacterial growth is inhibited compare to untreated controls. Meanwhile, for the selected compounds, cytotoxicity assays (CC50) were performed on a HepG2-derived hepatoblastoma cell line (HEPDES19). […] For CC50 evaluation, soluble tetrazolium dye (MTS) was used to measure mitochondrial toxicity in a human hepatoblastoma cell line (18). The bacteria (E. coli, S. saprophyticus and A. baumannii) used in MIC80 measurements were the same as that in the primary screening, but for Staphylococcus, S. aureus is used primarily because it is a common pathogen in Staphylococcaeae family, while S. saprophyticus is part of the normal human flora.

Data set [2] relates to HepG2-derived hepatoblastoma cell line (HEPDES19). In words: Cytotoxicity assay (CC50), MTS. As to conditions: HEPDES19 cells. It counts as cell-based, human. As for the experimental part: as §1
Another data set concerns S. aureus (ATCC 29213). In words: MIC80 on S. aureus. As to conditions: ≥80% growth inhibition; for MIC80: Staphylococcus aureus, ATCC 29213 / MSSA, read-out: MIC80 S. aureus, S. aureus ATCC 29213 (MSSA); for MIC80 S. aureus: S. aureus ATCC 29213 (MSSA). It counts as cell-based, Staphylococcus aureus. As for the experimental part:
as §1

The subject of data set [3] is S. aureus and/or S. saprophyticus. In words: MIC80 on S. aureus and/or S. saprophyticus. As to conditions: read-out: MIC80 against S. aureus and/or S. saprophyticus. It counts as cell-based. As for the experimental part:
as §1, with “(HEPDES19). […] For the MIC80 measurements, a 1.5 fold dilution series of the compounds was prepared in Mueller-Hinton II broth.” for “(HEPDES19).”, “flora. S. aureus (ATCC 29213) is methicillin-sensitive Staphylococcus aureus (MSSA) strain and it was used as a model strain to measure the MIC80.” for “flora.”

The next data set concerns E. coli (ATCC 35218). In words: microbe, parasite or virus in culture. It counts as cell-based. As to conditions: for MIC80: Escherichia coli, ATCC35218, read-out: MIC80 E. coli, E. coli ATCC 35218; for MIC80 E. coli: E. coli ATCC 35218. As for the experimental part: as §1
Data set [4] relates to Staphylococcus epidermidis. Format: cell-based. As for the experimental part: (§2) It was also tested whether compounds #63 and #285 can inhibit other coagulase-negative Staphylococcus (CNS) including S. epidermidis, S. hominis, etc. […].
Another data set deals with Staphylococcus hominis. It counts as cell-based. As for the experimental part:
as §2

Data set [5] has as its system S. aureus ATCC strains and MRSA. It counts as cell-based, Staphylococcus aureus.
Data set [6] concerns Coagulase negative Staphylococcus. In words: Antibiotic susceptibility of coagulase negative Staphylococcus strains. It counts as cell-based.
Setting [7] is: Se1 (Staphylococcus epidermidis).
[8] abbreviates: Se2 (Staphylococcus epidermidis).
Setting [9] is: Se3 (Staphylococcus epidermidis).
[10] abbreviates: Se4 (Staphylococcus epidermidis).
The mark [11] stands for this setting: Se5 (Staphylococcus epidermidis).
Where [12] appears, read: CNS1 (Coagulase negative Staphylococcus).
Setting [13] is: CNS2 (Coagulase negative Staphylococcus).

Turning to `Cc1cc(O)c(=O)c(O)cc1-c1ccc(Br)cc1` [Compound 114], the results for the CC50 in [1] and in data set [2] were under 50 µM and 38 µM, respectively. Further, the results for the MIC80 (in the data set on S. aureus (ATCC 29213); in data set [3]) were 19.8 µM (≈ 6.08 µg/mL) and under 20 µM, respectively.

For `CC(=O)c1c(C)cc(O)c(=O)c(O)c1-c1ccc2ccccc2c1` [Compound 332], it took 38 µM to reach half-maximal cytotoxicity in data set [2] (CC50). Moreover, the “MIC80 S. aureus” value against S. aureus (ATCC 29213) came to 19.8 µM (≈ 6.34 µg/mL).

In the case of `O=C(O)c1cn(Cc2cccc3ccccc23)c2ccccc2c1=O` [Compound 432], the MIC80 was 13.2 µM (≈ 4.35 µg/mL) in the data set on S. aureus (ATCC 29213) and under 20 µM in [3].

Turning to `Cc1cccc(C(=O)Oc2cccccc2=O)c1` [Compound 283], the MIC80 was over 100 µM with E. coli (ATCC 35218), 15.4 µM (≈ 3.7 µg/mL) in the data set on S. aureus (ATCC 29213) and under 20 µM in [3]. For the same molecule, the CC50 (commonly the concentration giving 50% cytotoxicity) was over 50 µM in data set [1] and at least 100 µM in [2].

As for `O=C(Sc1cccccc1=O)c1ccc(C(F)(F)F)cc1` [Compound 682], the “MIC80 E. coli” value against E. coli (ATCC 35218) was 66.7 µM (≈ 20.7 µg/mL). In [2], this molecule returned a CC50 of 82.9 µM. For the same molecule, the “MIC80 S. aureus” value against S. aureus (ATCC 29213) came to 19.8 µM (≈ 6.14 µg/mL).

Turning to `O=C(Oc1cccccc1=O)c1cccc(Cl)c1` [Compound 282], the MIC80 with E. coli (ATCC 35218) was over 100 µM; with S. aureus (ATCC 29213), 18.2 µM (≈ 4.74 µg/mL); in data set [3], under 20 µM. The same molecule registered a CC50 in data set [1] of over 50 µM.

As for `COc1c(N2C[C@@H]3CCCN[C@@H]3C2)c(F)cc2c(=O)c(C(=O)O)cn(C3CC3)c12` [MXF, moxifloxacin], the Antibiotic susceptibility result in [4] (setting [7]) is “R”; in [4] (setting [8]) it was “S”; in data set [4] (setting [9]), “R”; in [4] (setting [10]), “R”; in data set [4] (setting [11]), “R”; with Staphylococcus hominis (Sh1 (Staphylococcus hominis)), “R”. For the same molecule, the Antibiotic susceptibility entry (in the data set on Staphylococcus hominis (Sh2 (Staphylococcus hominis)); with Staphylococcus hominis (Sh3 (Staphylococcus hominis)); in [5] (S. aureus ATCC 25923); in data set [5] (S. aureus ATCC 29213); in [5] (S. aureus ATCC BAA 976); in [5] (S. aureus ATCC BAA 977)) was “S” each time. For the same molecule, the Antibiotic susceptibility entry was “I” in [5] (S. aureus ATCC BAA 1026); “R” in data set [5] (Sa1 (MRSA)); “I” in [5] (Sa2 (MRSA)); “I” in data set [5] (Sa3 (MRSA)); “R” in data set [5] (Sa5 (MRSA)); “R” in data set [5] (Sa6 (MRSA)). Moreover, the Antibiotic susceptibility result is “S” in [5] (Sa7 (MRSA)); “R” in [5] (Sa8 (MRSA)); “R” in data set [5] (Sa9 (MRSA)); “R” in data set [5] (Sa10 (MRSA)); “R” in data set [5] (Sa11 (MRSA)); “I” in [5] (Sa12 (MRSA)). Besides, the Antibiotic susceptibility result in [5] (Sa14 (MRSA)) was “I”; in data set [5] (Sa15 (MRSA)) it was “R”; in data set [5] (Sa16 (MRSA)), “I”; in data set [5] (Sa17 (MRSA)) it was “R”; in data set [5] (Sa18 (MRSA)), “I”; in [5] (Sa19 (MRSA)) it was “S”. In addition, the Antibiotic susceptibility result in data set [5] (Sa20 (MRSA)) was “I”; in data set [5] (Sa21 (MRSA)) it was “S”; in data set [5] (Sa22 (MRSA)), “S”; in data set [5] (Sa23 (MRSA)), “S”; in data set [6] (setting [12]), “S”; in [6] (setting [13]), “R”.

`Cc1ccc(S(=O)(=O)Oc2cc(C(C)C)cccc2=O)cc1` [Compound 688]: in the data set on E. coli (ATCC 35218), the “MIC80 E. coli” value is over 100 µM. In [2], this molecule registered a CC50 of 27.5 µM. In the data set on S. aureus (ATCC 29213), the “MIC80 S. aureus” value is 11.6 µM (≈ 3.69 µg/mL).

`O=C(Cc1ccccc1)Sc1cccccc1=O` [Compound 680]: in the data set with E. coli (ATCC 35218), the “MIC80 E. coli” value was determined as 19.8 µM (≈ 5.08 µg/mL). This molecule registered a CC50 in [2] of over 100 µM. The “MIC80 S. aureus” value in the data set on S. aureus (ATCC 29213) is 29.6 µM (≈ 7.59 µg/mL).

As for `CC[C@H]1OC(=O)[C@H](C)[C@@H](O[C@H]2C[C@@](C)(OC)[C@@H](O)[C@H](C)O2)[C@H](C)[C@@H](O[C@@H]2O[C@H](C)C[C@H](N(C)C)[C@H]2O)[C@](C)(O)C[C@@H](C)C(=O)[C@H](C)[C@@H](O)[C@]1(C)O` [ERY, erythromycin], the Antibiotic susceptibility result in data set [4] (setting [7]) was “S”; in [4] (setting [8]) it was “R”; in data set [4] (setting [9]), “R”; in data set [4] (setting [10]) it was “R”; in data set [4] (setting [11]), “R”; in the data set with Staphylococcus hominis (Sh1 (Staphylococcus hominis)), “R”. In addition, the Antibiotic susceptibility entry is recorded as “S” in the data set on Staphylococcus hominis (Sh2 (Staphylococcus hominis)); “R” with Staphylococcus hominis (Sh3 (Staphylococcus hominis)); “S” in data set [5] (S. aureus ATCC 25923); “S” in data set [5] (S. aureus ATCC 29213); “R” in [5] (S. aureus ATCC BAA 976); “R” in data set [5] (S. aureus ATCC BAA 977). The Antibiotic susceptibility entry in data set [5] (S. aureus ATCC BAA 1026), in [5] (Sa1 (MRSA)), in data set [5] (Sa2 (MRSA)), in [5] (Sa3 (MRSA)), in [5] (Sa5 (MRSA)) and in data set [5] (Sa6 (MRSA)) was “R” in each case. Besides, the Antibiotic susceptibility result in [5] (Sa7 (MRSA)), in data set [5] (Sa8 (MRSA)), in [5] (Sa9 (MRSA)), in data set [5] (Sa10 (MRSA)), in data set [5] (Sa11 (MRSA)) and in data set [5] (Sa12 (MRSA)) was “R” throughout. The Antibiotic susceptibility result in data set [5] (Sa14 (MRSA)), in [5] (Sa15 (MRSA)), in [5] (Sa16 (MRSA)), in data set [5] (Sa17 (MRSA)), in data set [5] (Sa18 (MRSA)) and in data set [5] (Sa19 (MRSA)) was “R” in each case. Moreover, the Antibiotic susceptibility entry in data set [5] (Sa20 (MRSA)) was “R”; in data set [5] (Sa21 (MRSA)) it was “R”; in data set [5] (Sa22 (MRSA)) it was “R”; in data set [5] (Sa23 (MRSA)), “R”; in data set [6] (setting [12]), “I”; in data set [6] (setting [13]), “S”.

Regarding `CO[C@@]1(NC(=O)Cc2cccs2)C(=O)N2C(C(=O)O)=C(COC(N)=O)CS[C@@H]21` [FOX, Cefoxitin], the FOX screen entry (in data set [4] (setting [7]); in data set [4] (setting [8]); in data set [4] (setting [9]); in data set [4] (setting [10]); in data set [4] (setting [11]); in the data set with Staphylococcus hominis (Sh1 (Staphylococcus hominis))) was “POS” each time. Further, the FOX screen result was “POS” in the data set with Staphylococcus hominis (Sh2 (Staphylococcus hominis)); “POS” in the data set with Staphylococcus hominis (Sh3 (Staphylococcus hominis)); “Neg” in [5] (S. aureus ATCC 25923); “Neg” in data set [5] (S. aureus ATCC 29213); “POS” in [5] (S. aureus ATCC BAA 976); “Neg” in [5] (S. aureus ATCC BAA 977). In addition, the FOX screen result in [5] (S. aureus ATCC BAA 1026), in data set [5] (Sa1 (MRSA)), in data set [5] (Sa2 (MRSA)), in data set [5] (Sa3 (MRSA)), in data set [5] (Sa6 (MRSA)) and in data set [5] (Sa7 (MRSA)) was “POS” in each case. Besides, the FOX screen entry in data set [5] (Sa9 (MRSA)), in data set [5] (Sa11 (MRSA)), in [5] (Sa12 (MRSA)), in [5] (Sa14 (MRSA)), in data set [5] (Sa15 (MRSA)) and in data set [5] (Sa16 (MRSA)) was “POS” throughout. For the same molecule, the FOX screen entry in [5] (Sa17 (MRSA)), in data set [5] (Sa18 (MRSA)), in [5] (Sa19 (MRSA)), in data set [5] (Sa20 (MRSA)), in data set [5] (Sa21 (MRSA)) and in data set [5] (Sa22 (MRSA)) was “POS” throughout. The FOX screen result in data set [5] (Sa23 (MRSA)), in [6] (setting [12]) and in [6] (setting [13]) was “POS” throughout.

The values are drawn from patent publication US12502362B2, “Inhibitors of nucleotidyltransferase superfamily enzymes as antibiotics” (priority 2017, dated 2025).
